Results on one molecule are retold here after patent US20140255402A1 (priority 2013, published 2014).

The subject of this assay is NALM/6 cells. On the set-up: species or system mice. The following applies: mouse, in vivo.

With `Nc1ccn([C@@H]2O[C@H](CO)[C@@H](O)[C@@H]2O)c(=O)n1` [Ara-C, Cytarabine], the “Survival difference as compared to placebo” value is on record as “no significant survival difference”.
